Test results as given in PubChem BioAssay (NCI).
Several values for one entry are separate records, joined by “and”; a condition that tells them apart may be missing. Equal values may be shown once.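 Each compound was tested at five concentrations against cells in 96-well plates for 48 hours. Abbreviation: GI50, concentration required for 50% inhibition of growth. TGI marks complete inhibition of growth.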

Tests used:
Test in all cases: growth of human tumour cells (NCI), 48 h
HOP-18 NSCLC = tested on: HOP-18 NSCLC
T-47D breast = tested on: T-47D breast
786-0 renal = tested on: 786-0 renal
OVCAR-5 ovarian = tested on: OVCAR-5 ovarian
SK-MEL-28 melanoma = tested on: SK-MEL-28 melanoma
OVCAR-4 ovarian = tested on: OVCAR-4 ovarian
PC-3 prostate = tested on: PC-3 prostate
SN12C renal = tested on: SN12C renal
K-562 leukemia = tested on: K-562 leukemia
SK-OV-3 ovarian = tested on: SK-OV-3 ovarian
UACC-257 melanoma = tested on: UACC-257 melanoma
LOX IMVI melanoma = tested on: LOX IMVI melanoma
A549 NSCLC = tested on: A549 NSCLC
HL-60(TB) leukemia = tested on: HL-60(TB) leukemia
BT-549 breast = tested on: BT-549 breast
LXFL 529 NSCLC = tested on: LXFL 529 NSCLC

Structure (SMILES): CN1C(=O)CC2(C)c3cc(O)ccc3N(C)C12 (stereo not given)
- TGI (HOP-18 NSCLC): > 100 µM
- GI50 (T-47D breast): > 75 µM
- TGI (T-47D breast): > 91.2 µM
- GI50 (786-0 renal): 23.8 µM
- TGI (786-0 renal): 58.1 µM and 28.6 µM
- TGI (OVCAR-5 ovarian): 59.6 µM
- GI50 (SK-MEL-28 melanoma): 11.8 µM
- TGI (SK-MEL-28 melanoma): 21.9 µM and > 79.2 µM
- TGI (OVCAR-4 ovarian): 10.6 µM
- GI50 (PC-3 prostate): > 75 µM
- TGI (PC-3 prostate): > 100 µM
- TGI (SN12C renal): 29.6 µM and 23.3 µM
- GI50 (K-562 leukemia): 11.6 µM
- TGI (K-562 leukemia): 31.3 µM and 70.8 µM
- GI50 (SK-OV-3 ovarian): > 75 µM
- TGI (SK-OV-3 ovarian): > 100 µM
- TGI (UACC-257 melanoma): > 85.9 µM
- GI50 (LOX IMVI melanoma): 14.8 µM
- TGI (LOX IMVI melanoma): 38.9 µM and 32.6 µM
- TGI (A549 NSCLC): 75 µM and > 100 µM
- GI50 (HL-60(TB) leukemia): 14.2 µM
- TGI (HL-60(TB) leukemia): 31.5 µM and 70 µM
- GI50 (BT-549 breast): 30.3 µM
- TGI (BT-549 breast): 75 µM and 30.8 µM
- TGI (LXFL 529 NSCLC): > 59.2 µM
